biological target: T1, mGlyT-1b (Mus musculus, UniProt P28571); assay: Glycine uptake inhibition assay (mGlyT-1b); type: cell-based; settings: [3H]-glycine uptake, Flp-in-CHO cells transfected with mGlyT-1b cDNA, 20 min preincubation at 22° C.; read-out: IC50 (μM) at GlyT-1
T1 construct: host or cells: Flp-in-CHO cells, stably transfected
T1 sequence (P28571 1-651 isoform P28571-2): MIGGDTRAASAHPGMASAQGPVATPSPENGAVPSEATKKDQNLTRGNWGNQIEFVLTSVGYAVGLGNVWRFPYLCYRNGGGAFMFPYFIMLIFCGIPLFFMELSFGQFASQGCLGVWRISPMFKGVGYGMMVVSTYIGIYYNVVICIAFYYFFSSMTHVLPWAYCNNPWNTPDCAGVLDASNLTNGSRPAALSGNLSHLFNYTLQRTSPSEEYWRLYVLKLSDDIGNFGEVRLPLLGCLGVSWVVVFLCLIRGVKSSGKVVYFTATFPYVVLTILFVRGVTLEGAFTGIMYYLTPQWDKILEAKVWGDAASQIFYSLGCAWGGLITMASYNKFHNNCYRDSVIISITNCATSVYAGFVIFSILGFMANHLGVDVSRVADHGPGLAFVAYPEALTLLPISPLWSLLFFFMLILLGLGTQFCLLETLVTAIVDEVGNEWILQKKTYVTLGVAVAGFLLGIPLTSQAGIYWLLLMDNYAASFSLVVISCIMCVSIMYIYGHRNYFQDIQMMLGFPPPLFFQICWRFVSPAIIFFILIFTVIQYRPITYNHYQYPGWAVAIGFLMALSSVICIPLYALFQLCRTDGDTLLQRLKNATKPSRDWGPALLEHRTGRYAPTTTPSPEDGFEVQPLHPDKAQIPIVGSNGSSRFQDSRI
Description: DMEM complete medium: Nutrient mixture F-12 (Gibco Life-technologies), fetal bovine serum (FBS) 5%, (Gibco life technologies), Penicillin/Streptomycin1% (Gibco life technologies), Hygromycin 0.6 mg/ml (Gibco life technologies), Glutamine 1 mM Gibco life technologies)
Uptake buffer (UB): 150 mM NaCl, 10 mM Hepes-Tris, pH 7.4, 1 mM CaCl2, 2.5 mM KCl, 2.5 mM MgSO4, 10 mM (+) D-glucose. Flp-in™-CHO (Invitrogen Cat n° R758-07)cells stably transfected with mGlyT1b cDNA.
Glycine Uptake Inhibition Assay (mGlyT-1b)
On day 1 mammalian cells, (Flp-in™-CHO), transfected with mGlyT-1b cDNA, were plated at the density of 40,000 cells/well in complete F-12 medium, without hygromycin in 96-well culture plates. On day 2, the medium was aspirated, and the cells were washed twice with uptake buffer (UB). The cells were then incubated for 20 min at 22° C. with either (i) no potential competitor, (ii) 10 mM non-radioactive glycine, (iii) a concentration of a potential inhibitor. A range of concentrations of the potential inhibitor was used to generate data for calculating the concentration of inhibitor resulting in 50% of the effect (e.g. IC50, the concentration of the competitor inhibiting glycine uptake of 50%). A solution was then immediately added containing [^3H]-glycine 60 nM (11-16 Ci/mmol) and 25 μM non-radioactive glycine. The plates were incubated with gentle shaking, and the reaction was stopped by aspiration of the mixture and washing (three times) with ice-cold UB. The cells were lysed with scintillation liquid, shaken 3 hours and the radioactivity in the cells was counted using a scintillation counter.

Row | SMILES | IC50
1 | CC(C)Oc1ccc(S(C)(=O)=O)cc1C(=O)N1CCC(Oc2ccc3ccccc3c2)C1 (racemic) [Example 18, Rac-(2-Isopropoxy-5-methanesulfonyl-phenyl)-[3-(naphthalen-2-yloxy)-pyrrolidin-1-yl]-methanone] | 0.87 µM
2 | CC(C)Oc1ccc(S(C)(=O)=O)cc1C(=O)N1CCC(Oc2ccc([N+](=O)[O-])cc2)CC1 [Example 4, (2-Isopropoxy-5-methanesulfonyl-phenyl)-[4-(4-nitro-phenoxy)-piperidin-1-yl]-methanone] | 1 µM
3 | CC(=O)c1ccc(OC2CCN(C(=O)c3cc(S(C)(=O)=O)ccc3OC(C)C)CC2)c(F)c1 [Example 5, 1-{3-Fluoro-4-[1-(2-isopropoxy-5-methanesulfonyl-benzoyl)-piperidin-4-yloxy]-phenyl}-ethanone] | 0.93 µM
4 | CC(C)Oc1ccc(S(C)(=O)=O)cc1C(=O)N1CC(Oc2ccc(C(F)(F)F)cc2)C1 [Example 21, (2-Isopropoxy-5-methanesulfonyl-phenyl)-[3-(4-trifluoromethyl-phenoxy)-azetidin-1-yl]-methanone] | 0.87 µM
5 | CC(C)Oc1ccc(S(C)(=O)=O)cc1C(=O)N1CC(Oc2cccc(C(F)(F)F)c2)C1 [Example 22, (2-Isopropoxy-5-methanesulfonyl-phenyl)-[3-(3-trifluoromethyl-phenoxy)-azetidin-1-yl]-methanone] | 0.7 µM
6 | C[C@@H](Oc1ccc(S(C)(=O)=O)cc1C(=O)N1CC(Oc2ccc(C(F)(F)F)cc2)C1)C(F)(F)F [Example 24, [5-Methanesulfonyl-2-((R)-2,2,2-trifluoro-1-methyl-ethoxy)-phenyl]-[3-(4-trifluoromethyl-phenoxy)-azetidin-1-yl]-methanone] | 0.84 µM

Now those with a lower IC50, led by results:

Row | IC50 | SMILES
7 | 0.63 µM | CC(C)Oc1ccc(S(C)(=O)=O)cc1C(=O)N1CCC(Oc2cc(C(F)(F)F)ccc2F)CC1 [Example 8, [4-(2-Fluoro-5-trifluoromethyl-phenoxy)-piperidin-1-yl]-(2-isopropoxy-5-methanesulfonyl-phenyl)-methanone]
8 | 0.55 µM | CC(C)Oc1ccc(S(C)(=O)=O)cc1C(=O)N1CCC(Oc2ccc(C(F)(F)F)cc2)C1 (racemic) [Example 13, Rac-(2-Isopropoxy-5-methanesulfonyl-phenyl)-[3-(4-trifluoromethyl-phenoxy)-pyrrolidin-1-yl]-methanone]
9 | 0.39 µM | C[C@H](Oc1ccc(S(C)(=O)=O)cc1C(=O)N1CC(Oc2ccc(C(F)(F)F)cc2)C1)C(F)(F)F [Example 23, [5-Methanesulfonyl-2-((S)-2,2,2-trifluoro-1-methyl-ethoxy)-phenyl]-[3-(4-trifluoromethyl-phenoxy)-azetidin-1-yl]-methanone]
10 | 0.109 µM | CNS(=O)(=O)c1ccc(OC2CCCC2)c(C(=O)N2CCC(Oc3ccc(C(F)(F)F)cc3)C2)c1 (centres unmarked) [Example 26, 4-Cyclopentyloxy-N-methyl-3-[3-(4-trifluoromethyl-phenoxy)-pyrrolidine-1-carbonyl]-benzenesulfonamide]
11 | 0.078 µM | CS(=O)(=O)c1ccc(N2CCOCC2)c(C(=O)N2CCC(Oc3ccc(C(F)(F)F)cc3)C2)c1 (centres unmarked) [Example 25, (5-Methanesulfonyl-2-morpholin-4-yl-phenyl)-[3-(4-trifluoromethyl-phenoxy)-pyrrolidin-1-yl]-methanone]

Reference: patent US7790763B2, “Substituted phenyl methanone derivatives” (Hoffmann-La Roche Inc., priority 2005, dated 2010)
